Assay results as given in patent publication US20240327787A1, “CULTURE MEDIUM, COATING MATRIX AND METHOD FOR EXPANDING MIDBRAIN DOPAMINERGIC PROGENITOR CELLS” (NUWACELL BIOTECHNOLOGIES CO., LTD., priority 2022, published 2024).

What was measured:
Format in all cases: cell-based, human
imDAPs [1] = assay: qRT-PCR analysis of imDAP-specific markers during expansion; conditions: 3 μM CHIR99021 vs 0 and 1.25 μM; 5 days expansion
Experimental: 1. For qRT-PCR analysis of mRNA gene expression, RNA should be harvested from at least 2×10^6 cells.
2. Harvest cells, add 350 μl of buffer RLT+1% (vol/vol) β-mercaptoethanol to the well, transfer the lysate to a 1.5 ml tube, and put it immediately on ice.
3. Perform RNA extraction using the Tiangen Kit (DP430), and follow the manufacturer's protocol ‘Purification of total RNA from animal and human cells’.
4. When the RNA extraction was completed, determine the RNA concentration using a Nanodrop instrument.
5. Perform the first-strand cDNA synthesis reaction with lug of RNA using the HiScript™ II Q RT SuperMIX for qPCR (+gDNA wiper) Kit (Vazyme, #R223-01) for RT-qPCR. Follow the manufacturer's ‘First-Strand cDNA Synthesis’ protocol. This reaction would yield a 20μl product.
6. […]
8. Analyze the samples by running a quantitative PCR on the LightCycler 480 instrument using a 40× cycle two-step protocol with a 60° C., 60 sec annealing/elongation step and a 95° C., 30 sec denaturation step. […]
imDAPs were produced according to the method described in CN201910169525.0. […] When imDAPs reach 100% confluence (4-5 days), cells were passaged enzymatically with 1× TrypLE, centrifuged at 250 g for 5 minutes, counted and replaced on new VTN-coated plates (1 μg/cm^2) at a density of 1×10^5 cells/cm^2 in the expansion medium. imDAPs were continuously expanded for 6 passages. […]

imDAPs [2] = assay: imDAP maturation, cell morphology and adhesion (bright-field); conditions: 1 μM IWR1 for at least 3 days vs without; VTN-coated; 1% HhPLT medium
Experimental: were produced according to the method described in CN201910169525.0, and expanded as described in Example 10. The expanded […] were seeded on VTN-coated (1 μg/cm^2) plates at a density of 5×10^5 cells/cm^2 (Day 0), and cultured in the maturation medium ([…]) supplemented with 1 μM IWR1. MM-P used in Example 11 contained the following components: NeurobasalTM medium, 1% (v/v) Glutamax, 0.5 mM Db-cAMP sodium salt, 200 μM ascorbic acid, 20 ng/ml BDNF, 20 ng/ml GDNF, 1 ng/ml TGF-β3, 10 μM DAPT, hPLT (0.5%, 1%, 2%). MM-H used in Example 11 contained the following components: NeurobasalTM medium, 1% (v/v) Glutamax, 0.5 mM Db-cAMP sodium salt, 200 μM ascorbic acid, 20 ng/ml BDNF, 20 ng/ml GDNF, 1 ng/ml TGF-β3, […], HhPLT (0.5%, 1%, 2%). MM-B used in Example 11 contained the following components: Neurobasal, 1% (v/v) Glutamax, 0.5 mM Db-cAMP sodium salt, 200 μM ascorbic acid, 20 ng/ml BDNF, 20 ng/ml GDNF, 1 ng/ml TGF-β 3, 10 μM DAPT, 2% (v/v) B27 (50×) (as control). The above HhPLT was produced from hPLT as follows. The hPLT was centrifuged at 3000 g for 30 min at 4° C. to obtain the supernatant, which was heated to 56° C. for 30 min. […] Cells were collected and counted by Vi-cell cytometer. The cells were analyzed by RT-qPCR for EN1, LMX1A, FOXA2, NURR1, SOX6 and TH gene expression. […]

imDAPs [3] = assay: qRT-PCR analysis of mDA maturation associated markers; conditions: 1 μM IWR1 vs without IWR1; day 7
Experimental: 1. For qRT-PCR analysis of mRNA gene expression, RNA should be harvested from at least 2×10^6 cells. 2. Harvest cells, add 350 μl of buffer RLT+1% (vol/vol) β-mercaptoethanol to the well, transfer the lysate to a 1.5 ml tube, and put it immediately on ice. 3. Perform RNA extraction using the Tiangen Kit (DP430), and follow the manufacturer's protocol 'Purification of total RNA from animal and human cells'. 4. When the RNA extraction was completed, determine the RNA concentration using a Nanodrop instrument. 5. Perform the first-strand cDNA synthesis reaction with lug of RNA using the HiScriptTM II Q RT SuperMIX for qPCR (+gDNA wiper) Kit (Vazyme, #R223-01) for RT-qPCR. Follow the manufacturer's 'First-Strand cDNA Synthesis' protocol. This reaction would yield a 20μl product. 6. Dilute the 10 μl cDNA product in 80 μl of nuclease-free water. 7. […] Analyze the samples by running a quantitative PCR on the LightCycler 480 instrument using a 40× cycle two-step protocol with a 60° C., 60 sec annealing/elongation step and a 95° C., 30 sec denaturation step. […] Cells were collected and counted by Vi-cell cytometer. The cells were analyzed by RT-qPCR for EN1, LMX1A, FOXA2, NURR1, SOX6 and TH gene expression. […]

SMILES | mDAP marker expression (EN1, LMX1A, FOXA2), qRT-PCR (FIG. 1C) (imDAPs [1]) | cell morphology on day 7 during maturation (FIG. 7D) (imDAPs [2]) | expression of NURR1, SOX6 and TH, qRT-PCR (FIG. 7E) (imDAPs [3])
Cc1cnc(-c2cnc(NCCNc3ccc(C#N)cn3)nc2-c2ccc(Cl)cc2Cl)[nH]1 [CHIR99021] | allowed better maintenance of mDAP marker expression |  | 
O=C(Nc1cccc2cccnc12)c1ccc(N2C(=O)[C@@H]3[C@H](C2=O)[C@@H]2C=C[C@H]3C2)cc1 [IWR1] |  | showed more obvious neural fibers | increased
